From PubChem BioAssay (NCI)
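Here, GI50 denotes the concentration required for 50% inhibition of growth. TGI: concentration producing complete growth inhibition.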

Experiments:
Assay in all cases: NCI-60 cell line screen, 384-well format
[1] = test system: 786-0 renal
[2] = test system: A498 renal
[3] = test system: A549 NSCLC
[4] = test system: ACHN renal
[5] = test system: BT-549 breast
[6] = test system: CAKI-1 renal
[7] = test system: CCRF-CEM leukemia
[8] = test system: COLO 205 colon
[9] = test system: DU-145 prostate
[10] = test system: EKVX NSCLC
[11] = test system: HCC-2998 colon
[12] = test system: HCT-116 colon
[13] = test system: HCT-15 colon
[14] = test system: HL-60(TB) leukemia
[15] = test system: HOP-62 NSCLC
[16] = test system: HOP-92 NSCLC
[17] = test system: HS 578T breast
[18] = test system: HT29 colon
[19] = test system: IGROV1 ovarian
[20] = test system: K-562 leukemia
[21] = test system: KM12 colon
[22] = test system: LOX IMVI melanoma
[23] = test system: M14 melanoma
[24] = test system: MALME-3M melanoma
[25] = test system: MCF7 breast
[26] = test system: MDA-MB-231 breast
[27] = test system: MDA-MB-435 melanoma
[28] = test system: MDA-MB-468 breast
[29] = test system: MOLT-4 leukemia
[30] = test system: NCI-H226 lung
[31] = test system: NCI-H23 lung
[32] = test system: NCI-H322M lung
[33] = test system: NCI-H460 NSCLC
[34] = test system: NCI-H522 lung
[35] = test system: NCI/ADR-RES ovarian
[36] = test system: OVCAR-3 ovarian
[37] = test system: OVCAR-4 ovarian
[38] = test system: OVCAR-5 ovarian
[39] = test system: OVCAR-8 ovarian
[40] = test system: PC-3 prostate
[41] = test system: RPMI-8226 leukemia
[42] = test system: RXF 393 renal
[43] = test system: SF-268 CNS
[44] = test system: SF-295 CNS
[45] = test system: SF-539 CNS
[46] = test system: SK-MEL-2 melanoma
[47] = test system: SK-MEL-28 melanoma
[48] = test system: SK-MEL-5 melanoma
[49] = test system: SK-OV-3 ovarian
[50] = test system: SN12C renal
[51] = test system: SNB-19 CNS
[52] = test system: SNB-75 CNS
[53] = test system: SR leukemia
[54] = test system: SW-620 colon
[55] = test system: T-47D breast
[56] = test system: TK-10 renal
[57] = test system: U251 glioblastoma
[58] = test system: UACC-257 melanoma
[59] = test system: UACC-62 melanoma

**Q.** How did the GI50 [1] turn out when `Nc1ccn([C@@H]2C(F)=C(CO)[C@@H](O)[C@H]2O)c(=O)n1` was run?
**A.** 1.09 µM

**Q.** What about the TGI [1] of the same compound?
**A.** > 100 µM

**Q.** What about the GI50 [2] of the same compound?
**A.** 1.51 µM

**Q.** What about the TGI [2] of the same compound?
**A.** 13.6 µM

**Q.** And the GI50 [3]?
**A.** 0.461 µM

**Q.** What about the TGI [3] of the same compound?
**A.** > 35.6 µM

**Q.** And the GI50 [4]?
**A.** 0.923 µM

**Q.** And the TGI [4]?
**A.** > 73.1 µM

**Q.** And the GI50 [5]?
**A.** 25.4 µM

**Q.** And the TGI [5]?
**A.** > 100 µM

**Q.** What about the GI50 [6] of the same compound?
**A.** 0.383 µM

**Q.** And the GI50 [7]?
**A.** 0.825 µM

**Q.** What about the TGI [7] of the same compound?
**A.** 2.59 µM

**Q.** And the GI50 [8]?
**A.** 0.775 µM

**Q.** And the TGI [8]?
**A.** 3.96 µM

**Q.** What about the GI50 [9] of the same compound?
**A.** 0.396 µM

**Q.** What about the TGI [9] of the same compound?
**A.** 1.81 µM

**Q.** And the GI50 [10]?
**A.** 33.5 µM

**Q.** And the TGI [10]?
**A.** > 100 µM

**Q.** What about the GI50 [11] of the same compound?
**A.** 1.71 µM

**Q.** And the TGI [11]?
**A.** > 100 µM

**Q.** What about the GI50 [12] of the same compound?
**A.** 0.409 µM

**Q.** What about the TGI [12] of the same compound?
**A.** 21.4 µM

**Q.** And the GI50 [13]?
**A.** 1.09 µM

**Q.** What about the TGI [13] of the same compound?
**A.** > 100 µM

**Q.** And the GI50 [14]?
**A.** 0.374 µM

**Q.** What about the TGI [14] of the same compound?
**A.** 0.979 µM

**Q.** What about the GI50 [15] of the same compound?
**A.** 1.26 µM

**Q.** And the TGI [15]?
**A.** 31.5 µM

**Q.** And the GI50 [16]?
**A.** 0.745 µM

**Q.** What about the TGI [16] of the same compound?
**A.** 5.65 µM

**Q.** And the GI50 [17]?
**A.** 13.4 µM

**Q.** And the TGI [17]?
**A.** > 100 µM

**Q.** What about the GI50 [18] of the same compound?
**A.** 0.922 µM

**Q.** And the TGI [18]?
**A.** > 42.7 µM

**Q.** What about the GI50 [19] of the same compound?
**A.** 3.95 µM

**Q.** And the TGI [19]?
**A.** > 100 µM

**Q.** What about the GI50 [20] of the same compound?
**A.** 0.474 µM

**Q.** What about the TGI [20] of the same compound?
**A.** > 100 µM

**Q.** And the GI50 [21]?
**A.** 2.14 µM

**Q.** And the TGI [21]?
**A.** > 100 µM

**Q.** What about the GI50 [22] of the same compound?
**A.** 0.791 µM

**Q.** What about the TGI [22] of the same compound?
**A.** 12 µM

**Q.** What about the GI50 [23] of the same compound?
**A.** 0.763 µM

**Q.** What about the TGI [23] of the same compound?
**A.** > 21.2 µM

**Q.** And the GI50 [24]?
**A.** 4.43 µM

**Q.** What about the TGI [24] of the same compound?
**A.** > 100 µM

**Q.** And the GI50 [25]?
**A.** 1.02 µM

**Q.** What about the TGI [25] of the same compound?
**A.** > 100 µM

**Q.** What about the GI50 [26] of the same compound?
**A.** 1.32 µM

**Q.** What about the TGI [26] of the same compound?
**A.** > 93.8 µM

**Q.** What about the GI50 [27] of the same compound?
**A.** 0.967 µM

**Q.** And the TGI [27]?
**A.** > 100 µM

**Q.** And the GI50 [28]?
**A.** 38.4 µM

**Q.** And the TGI [28]?
**A.** > 100 µM

**Q.** What about the GI50 [29] of the same compound?
**A.** 0.182 µM

**Q.** And the TGI [29]?
**A.** 0.338 µM

**Q.** What about the GI50 [30] of the same compound?
**A.** 13.5 µM

**Q.** And the TGI [30]?
**A.** > 100 µM

**Q.** And the GI50 [31]?
**A.** 3.07 µM

**Q.** And the TGI [31]?
**A.** 13.1 µM

**Q.** And the GI50 [32]?
**A.** 5.74 µM

**Q.** And the TGI [32]?
**A.** > 100 µM

**Q.** What about the GI50 [33] of the same compound?
**A.** 0.361 µM

**Q.** And the TGI [33]?
**A.** 5.46 µM

**Q.** And the GI50 [34]?
**A.** 0.539 µM

**Q.** And the TGI [34]?
**A.** 57.3 µM

**Q.** What about the GI50 [35] of the same compound?
**A.** 0.882 µM

**Q.** And the TGI [35]?
**A.** 4.3 µM

**Q.** And the GI50 [36]?
**A.** 4.47 µM

**Q.** What about the TGI [36] of the same compound?
**A.** > 100 µM

**Q.** What about the GI50 [37] of the same compound?
**A.** 23.5 µM

**Q.** And the TGI [37]?
**A.** > 100 µM

**Q.** What about the GI50 [38] of the same compound?
**A.** 1.02 µM

**Q.** And the TGI [38]?
**A.** > 28.3 µM

**Q.** And the GI50 [39]?
**A.** 0.704 µM

**Q.** And the TGI [39]?
**A.** > 23.9 µM

**Q.** What about the GI50 [40] of the same compound?
**A.** 5.23 µM

**Q.** And the TGI [40]?
**A.** > 78.7 µM

**Q.** What about the GI50 [41] of the same compound?
**A.** 0.292 µM

**Q.** And the TGI [41]?
**A.** 0.922 µM

**Q.** And the GI50 [42]?
**A.** 2.34 µM

**Q.** And the TGI [42]?
**A.** > 72.1 µM

**Q.** And the GI50 [43]?
**A.** 2.7 µM

**Q.** And the TGI [43]?
**A.** > 100 µM

**Q.** And the GI50 [44]?
**A.** 2.84 µM

**Q.** What about the TGI [44] of the same compound?
**A.** > 92.8 µM

**Q.** What about the GI50 [45] of the same compound?
**A.** 1.61 µM

**Q.** And the TGI [45]?
**A.** > 100 µM

**Q.** And the GI50 [46]?
**A.** 19.8 µM

**Q.** What about the TGI [46] of the same compound?
**A.** > 100 µM

**Q.** And the GI50 [47]?
**A.** 1.25 µM

**Q.** And the TGI [47]?
**A.** > 100 µM

**Q.** And the GI50 [48]?
**A.** 7.7 µM

**Q.** And the TGI [48]?
**A.** 68.5 µM

**Q.** And the GI50 [49]?
**A.** 5.57 µM

**Q.** What about the TGI [49] of the same compound?
**A.** > 59.6 µM

**Q.** And the GI50 [50]?
**A.** 0.5 µM

**Q.** And the TGI [50]?
**A.** 4.9 µM

**Q.** What about the GI50 [51] of the same compound?
**A.** 3.37 µM

**Q.** And the TGI [51]?
**A.** > 100 µM

**Q.** What about the GI50 [52] of the same compound?
**A.** 12.3 µM

**Q.** And the TGI [52]?
**A.** > 100 µM

**Q.** What about the GI50 [53] of the same compound?
**A.** 0.183 µM

**Q.** And the TGI [53]?
**A.** 0.344 µM

**Q.** What about the GI50 [54] of the same compound?
**A.** 0.893 µM

**Q.** What about the TGI [54] of the same compound?
**A.** > 50.7 µM

**Q.** What about the GI50 [55] of the same compound?
**A.** 10.7 µM

**Q.** And the TGI [55]?
**A.** > 100 µM

**Q.** And the GI50 [56]?
**A.** 0.689 µM

**Q.** What about the TGI [56] of the same compound?
**A.** > 100 µM

**Q.** What about the GI50 [57] of the same compound?
**A.** 2.78 µM

**Q.** And the TGI [57]?
**A.** > 100 µM

**Q.** And the GI50 [58]?
**A.** 28.2 µM

**Q.** And the TGI [58]?
**A.** > 96.5 µM

**Q.** And the GI50 [59]?
**A.** 3.87 µM

**Q.** What about the TGI [59] of the same compound?
**A.** > 100 µM
